In ChEMBL document CHEMBL2034842, “Synthesis, anti-Candida activity, and cytotoxicity of new (4-(4-iodophenyl)thiazol-2-yl)hydrazine derivatives” (Eur J Med Chem, 2012) one finds MIC data, which are given here for 8 molecules.

What all share (assay type): functional
The subject of one assay is Escherichia coli. The assay can be described thus: Antibacterial activity against Escherichia coli after 18 to 22 hrs by […].
A further assay concerns Proteus vulgaris. The assay can be described thus: Antibacterial activity against Proteus vulgaris after 18 to 22 hrs by […].
For a further assay, the system named is Klebsiella aerogenes. The assay can be described thus: Antibacterial activity against Enterobacter aerogenes after 18 to 22 hrs by […].
The test system of the next assay is Klebsiella pneumoniae. The assay can be described thus: Antibacterial activity against Klebsiella pneumoniae after 18 to 22 hrs by […].
The subject of another assay is Staphylococcus aureus. The assay can be described thus: Antibacterial activity against Staphylococcus aureus after 18 to 22 hrs by […].
In another assay the test system is Staphylococcus warneri. The assay can be described thus: Antibacterial activity against Staphylococcus warneri after 18 to 22 hrs by […].
For a further assay, the system named is Streptococcus pyogenes. The assay can be described thus: Antibacterial activity against Streptococcus pyogenes after 18 to 22 hrs by […].
For the next assay, the system named is Enterococcus faecalis. The assay can be described thus: Antibacterial activity against Enterococcus faecalis after 18 to 22 hrs by […].
The test system of a further assay is Candida albicans. The assay can be described thus: Antifungal activity against 10 strains of Candida albicans after 24 hrs by […].
In the next assay the test system is Pichia kudriavzevii. The assay can be described thus: Antifungal activity against 3 strains of Candida krusei after 24 hrs by […].
A further assay deals with Candida parapsilosis. The assay can be described thus: Antifungal activity against 4 strains of Candida parapsilosis after 24 hrs by […]. The following applies: Lodderomyces parapsilosis.
The next assay deals with [Candida] sake. The assay can be described thus: Antifungal activity against 2 strains of Candida sake after 24 hrs by […]. The following applies: Fermentozyma sake.
The test system of the next assay is Nakaseomyces glabratus. The assay can be described thus: Antifungal activity against 4 strains of Candida glabrata after 24 hrs by […].
A further assay has as its system Candida tropicalis. The assay can be described thus: Antifungal activity against 4 strains of Candida tropicalis after 24 hrs by […].

Values after ≈ are worked out from the molar mass of the structure shown.

As a reminder, the MIC is the lowest concentration found to suppress growth. High values mean weaker potency, low ones greater potency.

Turning to `Ic1ccc(-c2csc(N/N=C/c3ccncc3)n2)cc1`, the MIC against Escherichia coli is more than 128 µg/mL; with Proteus vulgaris, more than 128 µg/mL; in the assay on Klebsiella aerogenes, more than 128 µg/mL; against Klebsiella pneumoniae, more than 128 µg/mL; in the assay with Staphylococcus aureus, 32 µg/mL (≈ 78.8 µM); with Staphylococcus warneri, 32 µg/mL (≈ 78.8 µM). The MIC in the assay on Streptococcus pyogenes amounted to 2 µg/mL (≈ 4.92 µM); against Enterococcus faecalis, 2 µg/mL (≈ 4.92 µM); against Candida albicans, 0.25 µg/mL (≈ 0.615 µM); against Pichia kudriavzevii it was 128 µg/mL (≈ 315 µM); with Candida parapsilosis, 2 µg/mL (≈ 4.92 µM); in assay [Candida] sake it was 128 µg/mL (≈ 315 µM). Moreover, the values for the minimal inhibitory concentration (MIC) in the assay with Nakaseomyces glabratus and with Candida tropicalis were 2 µg/mL (≈ 4.92 µM) and 0.5 µg/mL (≈ 1.23 µM), respectively.

As to `C/C(=N\Nc1nc(-c2ccc(I)cc2)cs1)c1ccc2ccccc2c1`, the MIC in the assay with Escherichia coli was found to be 16 µg/mL (≈ 34.1 µM); against Proteus vulgaris it was 16 µg/mL (≈ 34.1 µM); in the assay on Klebsiella aerogenes it was 16 µg/mL (≈ 34.1 µM); with Klebsiella pneumoniae it was 16 µg/mL (≈ 34.1 µM); against Staphylococcus aureus it was 8 µg/mL (≈ 17 µM); against Staphylococcus warneri it was 4 µg/mL (≈ 8.52 µM). Moreover, the MIC came out at 8 µg/mL (≈ 17 µM) in the assay on Streptococcus pyogenes; 4 µg/mL (≈ 8.52 µM) against Enterococcus faecalis; 2 µg/mL (≈ 4.26 µM) against Candida albicans; 64 µg/mL (≈ 136 µM) against Pichia kudriavzevii; 2 µg/mL (≈ 4.26 µM) with Candida parapsilosis; 64 µg/mL (≈ 136 µM) in [Candida] sake. The MIC turned out to be 4 µg/mL (≈ 8.52 µM) against Nakaseomyces glabratus and 2 µg/mL (≈ 4.26 µM) in the assay with Candida tropicalis.

For `Ic1ccc(-c2csc(NN=C3CCCC3)n2)cc1`, the MIC against Escherichia coli was more than 128 µg/mL; with Proteus vulgaris, 32 µg/mL (≈ 83.5 µM); in the assay on Klebsiella aerogenes it was more than 128 µg/mL; against Klebsiella pneumoniae, more than 128 µg/mL; in the assay with Staphylococcus aureus it was 32 µg/mL (≈ 83.5 µM); in the assay with Staphylococcus warneri, 8 µg/mL (≈ 20.9 µM). Further, the MIC was 8 µg/mL (≈ 20.9 µM) against Streptococcus pyogenes; 8 µg/mL (≈ 20.9 µM) with Enterococcus faecalis; 2 µg/mL (≈ 5.22 µM) in the assay on Candida albicans; 2 µg/mL (≈ 5.22 µM) in the assay on Pichia kudriavzevii; 2 µg/mL (≈ 5.22 µM) with Candida parapsilosis; 32 µg/mL (≈ 83.5 µM) in [Candida] sake. Moreover, the values for the MIC against Nakaseomyces glabratus and in the assay with Candida tropicalis were 2 µg/mL (≈ 5.22 µM) and 0.5 µg/mL (≈ 1.3 µM), respectively.

For the molecule `CC(C)(O/N=C(\C(=O)N[C@@H]1C(=O)N2C(C(=O)[O-])=C(C[n+]3ccccc3)CS[C@H]12)c1csc(N)n1)C(=O)O` [CEFTAZIDIME], the MIC is 4 µg/mL (≈ 7.32 µM) in the assay on Escherichia coli; 2 µg/mL (≈ 3.66 µM) against Proteus vulgaris; 2 µg/mL (≈ 3.66 µM) with Klebsiella aerogenes; 2 µg/mL (≈ 3.66 µM) in the assay with Klebsiella pneumoniae; 0.5 µg/mL (≈ 0.915 µM) against Staphylococcus aureus; 0.5 µg/mL (≈ 0.915 µM) with Staphylococcus warneri. Besides, the minimum inhibitory concentration (MIC) against Streptococcus pyogenes and against Enterococcus faecalis was 0.5 µg/mL (≈ 0.915 µM) throughout.

Regarding `CC1CCCC/C1=N\Nc1nc(-c2ccc(I)cc2)cs1` (stereo unspecified), the MIC with Escherichia coli is 16 µg/mL (≈ 38.9 µM); in the assay with Proteus vulgaris, more than 128 µg/mL; with Klebsiella aerogenes, more than 128 µg/mL; against Klebsiella pneumoniae it was 32 µg/mL (≈ 77.8 µM); against Staphylococcus aureus, 8 µg/mL (≈ 19.4 µM); against Staphylococcus warneri, 4 µg/mL (≈ 9.72 µM). Further, the MIC with Streptococcus pyogenes turned out to be 8 µg/mL (≈ 19.4 µM); with Enterococcus faecalis, 8 µg/mL (≈ 19.4 µM); in the assay with Candida albicans, 0.25 µg/mL (≈ 0.608 µM); in the assay on Pichia kudriavzevii it was 128 µg/mL (≈ 311 µM); against Candida parapsilosis, 2 µg/mL (≈ 4.86 µM); in [Candida] sake, 128 µg/mL (≈ 311 µM). The values for the MIC in the assay on Nakaseomyces glabratus and against Candida tropicalis were 2 µg/mL (≈ 4.86 µM) and 0.5 µg/mL (≈ 1.22 µM), respectively.

Regarding `Ic1ccc(-c2csc(N/N=C/c3cccs3)n2)cc1`, the MIC in the assay with Escherichia coli is more than 128 µg/mL; with Proteus vulgaris, more than 128 µg/mL; with Klebsiella aerogenes it was more than 128 µg/mL; with Klebsiella pneumoniae, more than 128 µg/mL; in the assay with Staphylococcus aureus it was 32 µg/mL (≈ 77.8 µM); in the assay with Staphylococcus warneri, 32 µg/mL (≈ 77.8 µM). Also, the MIC was found to be 2 µg/mL (≈ 4.86 µM) against Streptococcus pyogenes; 32 µg/mL (≈ 77.8 µM) against Enterococcus faecalis; 2 µg/mL (≈ 4.86 µM) in the assay on Candida albicans; 128 µg/mL (≈ 311 µM) with Pichia kudriavzevii; 2 µg/mL (≈ 4.86 µM) with Candida parapsilosis; 128 µg/mL (≈ 311 µM) in assay [Candida] sake. In addition, the MIC against Nakaseomyces glabratus is 4 µg/mL (≈ 9.73 µM); against Candida tropicalis, 2 µg/mL (≈ 4.86 µM).

With `C/C(=N\Nc1nc(-c2ccc(I)cc2)cs1)c1cc2ccccc2oc1=O`, the MIC is 16 µg/mL (≈ 32.8 µM) with Escherichia coli; more than 128 µg/mL against Proteus vulgaris; more than 128 µg/mL in the assay with Klebsiella aerogenes; more than 128 µg/mL in the assay with Klebsiella pneumoniae; 32 µg/mL (≈ 65.7 µM) against Staphylococcus aureus; 4 µg/mL (≈ 8.21 µM) in the assay on Staphylococcus warneri. Besides, the MIC was 4 µg/mL (≈ 8.21 µM) in the assay on Streptococcus pyogenes; 8 µg/mL (≈ 16.4 µM) in the assay on Enterococcus faecalis; 2 µg/mL (≈ 4.1 µM) with Candida albicans; 2 µg/mL (≈ 4.1 µM) in the assay with Pichia kudriavzevii; 2 µg/mL (≈ 4.1 µM) with Candida parapsilosis; 4 µg/mL (≈ 8.21 µM) in [Candida] sake. Besides, the MIC in the assay on Nakaseomyces glabratus came out at 4 µg/mL (≈ 8.21 µM); against Candida tropicalis, 2 µg/mL (≈ 4.1 µM).

Take `Ic1ccc(-c2csc(NN=C3CCCCC3)n2)cc1`: the MIC with Escherichia coli was more than 128 µg/mL; in the assay on Proteus vulgaris, more than 128 µg/mL; against Klebsiella aerogenes, more than 128 µg/mL; in the assay on Klebsiella pneumoniae it was more than 128 µg/mL; against Staphylococcus aureus, 32 µg/mL (≈ 80.5 µM); in the assay with Staphylococcus warneri, 32 µg/mL (≈ 80.5 µM). Also, the MIC with Streptococcus pyogenes was 8 µg/mL (≈ 20.1 µM); with Enterococcus faecalis it was 32 µg/mL (≈ 80.5 µM); in the assay with Candida albicans, 0.5 µg/mL (≈ 1.26 µM); in the assay on Pichia kudriavzevii, 2 µg/mL (≈ 5.03 µM); against Candida parapsilosis, 2 µg/mL (≈ 5.03 µM); in assay [Candida] sake, 16 µg/mL (≈ 40.3 µM). Moreover, the MIC in the assay on Nakaseomyces glabratus and against Candida tropicalis was 2 µg/mL (≈ 5.03 µM) in each case.
